Values after ≈ are worked out from the molar mass of the structure shown.

The subject of assay [1] is Mycobacterium tuberculosis. As to the kind of experiment: In vitro anti-mycobacterial activity against Mycobacterium tuberculosis H37Rv. It counts as functional. Details: concentration or dose not given beside the values.
For assay [2], the system named is Mycobacterium tuberculosis. As to the kind of experiment: Minimum inhibitory concentration required to inhibit 90% of the inoculum of tuberculosis H37Rv. It counts as functional.
Assay [3] has as its system Mycobacterium tuberculosis. As to the kind of experiment: Minimum bactericidal concentration (MBC) against H37Rv. In kind it is functional.
For assay [4], the system named is Mycobacterium tuberculosis. Kind of assay: Minimum bactericidal concentration (MBC) against RMP-R. It counts as functional.
The subject of assay [5] is Mycobacterium tuberculosis. Kind of assay: Minimum bactericidal concentration (MBC) against INH-R. It counts as functional.
The subject of assay [6] is Mycobacterium tuberculosis. As to the kind of experiment: Minimum inhibitory concentration against Mycobacterium tuberculosis strain, EMB-R. In kind it is functional.
The test system of assay [7] is Mycobacterium tuberculosis. As to the kind of experiment: Minimum inhibitory concentration against Mycobacterium tuberculosis strain, CIP-R. It counts as functional.
Assay [8] relates to Mycobacterium tuberculosis. As to the kind of experiment: Minimum inhibitory concentration against Mycobacterium tuberculosis strain, KM-R. It counts as functional.
A short description of assay [9]: Ratio of minimum bactericidal concentration (MBC) against H37Rv to that of minimum inhibitory concentration (MIC) to H37Rv in Alamar assay(Mycobacterium tuberculosis). In kind it is functional.
In assay [10] the test system is Mycobacterium tuberculosis. Kind of assay: Minimum inhibitory concentration against Mycobacterium tuberculosis strain, Erdman. In kind it is functional.
Assay [11] concerns Mycobacterium tuberculosis. Kind of assay: Minimum inhibitory concentration against Mycobacterium tuberculosis strain, RMP-R. In kind it is functional.
A short description of assay [12]: Ratio of minimum bactericidal concentration (MBC) against RMP-R to that of minimum inhibitory concentration (MIC) to H37Rv in Alamar assay(Mycobacterium tuberculosis). It counts as functional.
Assay [13] concerns Mycobacterium tuberculosis. Kind of assay: Minimum inhibitory concentration against Mycobacterium tuberculosis strain, INH-R. It counts as functional.
Assay [14] concerns Mycobacterium tuberculosis. Kind of assay: Minimum inhibitory concentration against Mycobacterium tuberculosis strain H37Rv, using Alamar assay. It counts as functional.
The nature of assay [15]: Ratio of minimum bactericidal concentration (MBC) against INH-R to that of minimum inhibitory concentration (MIC) to H37Rv in Alamar assay(Mycobacterium tuberculosis). It counts as functional.
The next assay concerns Vero. Kind of assay: In vitro cytotoxicity was determined against VERO cells. It counts as functional, cell-based. The conditions noted are these: Chlorocebus sabaeus.

`Cc1ccnc2ccccc12` displayed an Inhibition in assay [1] of 0%. The compound further had a minimal inhibitory concentration (MIC) in [2] of over 6.25 µg/mL.
The corresponding values for `Cc1cc(C(C)C)nc2c(C(C)C)cccc12` are 71% and over 6.25 µg/mL.
With `Cc1cc(C2CCCC2)nc2c(C3CCCC3)cccc12`, the results for the MBC in assay [3], in [4] and in [5] were 50 µg/mL (≈ 179 µM), 200 µg/mL (≈ 716 µM) and 100 µg/mL (≈ 358 µM), respectively. For the same compound, the minimal inhibitory concentration (MIC) in [6] was 12.5 µg/mL (≈ 44.7 µM); in assay [7] it was 12.5 µg/mL (≈ 44.7 µM); in [8], 25 µg/mL (≈ 89.5 µM); in [10] it was 50 µg/mL (≈ 179 µM); in assay [11], 12.5 µg/mL (≈ 44.7 µM); in [2] it was over 6.25 µg/mL. The minimum inhibitory concentration (MIC) in [13] came to 12.5 µg/mL (≈ 44.7 µM); in [14] it was 25 µg/mL (≈ 89.5 µM). Also, in assay [1], the Inhibition stood at 100%. Moreover, the Ratio in assay [9] was 2 µg/mL; in [12] it was 8 µg/mL; in [15], 4 µg/mL. In the assay on Vero, the IC50 was over 50 µg/mL.
As for `CCCCc1cc(C)c2ccccc2n1`, in [1], the Inhibition was 28%. Moreover, in [2], the minimal inhibitory concentration (MIC) is over 6.25 µg/mL.
As for `CCCCCc1cc(C)c2cccc(CCCCC)c2n1`, the Inhibition in [1] came to 29%. For the same compound, the minimum inhibitory concentration (MIC) in assay [2] is over 6.25 µg/mL.
Taken in the same sequence, the figures for `CCCCc1cc(C)c2cccc(CCCC)c2n1` were 33% and 6.25 µg/mL (≈ 24.5 µM).
As to `Cc1cc(C(C)C)nc2ccccc12`, the Inhibition in [1] came out at 57%. Further, in assay [2], the MIC was over 6.25 µg/mL.
The corresponding values for `Cc1cc(C2CCCC2)nc2ccccc12` are 74% and over 6.25 µg/mL.
Taken in the same sequence, the figures for `CCCCCc1cc(C)c2ccccc2n1` were 24% and over 6.25 µg/mL.
The corresponding values for `CCCc1cc(C)c2ccccc2n1` are 30% and over 6.25 µg/mL.
On to `CCCc1cc(C)c2cccc(CCC)c2n1`, for which, in assay [1], the Inhibition is listed as 36%. This compound also displayed a minimum inhibitory concentration (MIC) in assay [2] of over 6.25 µg/mL.
The corresponding values for `Cc1cc(C2CCC2)nc2ccccc12` are 67% and over 6.25 µg/mL.
Taken in the same sequence, the figures for `Cc1cc(C23CC4CC(CC(C4)C2)C3)nc2ccccc12` were 76% and over 69.2 µg/mL.
For `CCCCCCc1cc(C)c2ccccc2n1`, the Inhibition in [1] is listed as 20%. Further, the minimal inhibitory concentration (MIC) in assay [2] was over 6.25 µg/mL.
The corresponding values for `CCCCCCc1cc(C)c2cccc(CCCCCC)c2n1` are 23% and over 6.25 µg/mL.
Taken in the same sequence, the figures for `Cc1cc(C2CCC2)nc2c(C3CCC3)cccc12` were 100% and 12.5 µg/mL (≈ 49.7 µM).
Regarding `Cc1cc(C2CC2)nc2ccccc12`, the Inhibition in [1] amounted to 29%. In addition, in assay [2], the MIC was over 6.25 µg/mL.
The compound `Cc1cc(C2CCCCC2)nc2c(C3CCCCC3)cccc12` displayed an Inhibition in assay [1] of 53%. The same compound displayed an MIC in [2] of over 6.25 µg/mL.
Taken in the same sequence, the figures for `Cc1cc(C2CCCCC2)nc2ccccc12` were 16% and over 6.25 µg/mL.

Source of the values: ChEMBL document CHEMBL1136642, “Substituted 4-methylquinolines as a new class of anti-tuberculosis agents” (Bioorg Med Chem Lett, 2003).
